# Experimental data from paper PMC7072329, “Discovery of Kynurenines Containing Oligopeptides as Potent Opioid Receptor Agonists” (Biomolecules, 2020).
# Like-named read-outs stand apart in the source and are kept apart here. Where a SMILES comes first, the peptide text is derived from it. [ ]: non-standard residue; d: D form. Kyn = Nc1ccccc1C(=O)C[C@H](N)C(=O)O
# Key:
# CD-1 male mice [1] = assay: formalin test; assay type: in vivo; conditions: s.c. in hind paw, 100 μg/20 μL, 15 min before formalin
# Experimental: (§1) In our experiments, we used CD-1 male mice (Harlan, Italy, 25–30 g) maintained in colony, housed in cages (7 mice per cage) under standard light/dark cycle (from 7:00 a.m. to 7:00 p.m.), temperature (21 ± 1 °C) and relative humidity (60% ± 10%) for at least 1 week. Food and water were available ad libitum. The Service for Biotechnology and Animal Welfare of the Istituto Superiore di Sanità and the Italian Ministry of Health authorized the experimental protocol according to Legislative Decree 26/14.
# DMSO was purchased from Merck (Rome, Italy). Peptides solutions were freshly prepared using saline containing 0.9% NaCl and DMSO in the ratio DMSO/saline 1:5 v/v every experimental day. These solutions were injected at a volume of 10 μL/mouse for intracerebroventricular (i.c.v.) administrations or at a volume of 20 μL/mouse for subcutaneous administrations.
# In the formalin test, the injection of a dilute solution of formalin (1%, 20 μL/paw) into the dorsal surface of the mouse hind paw evoked biphasic nociceptive behavioral responses, such as licking, biting the injected paw, or both, occurring from 0 to 10 min after formalin injection (the early phase) and a prolonged phase, occurring from 15 to 40 min (the late phase). Before the test, mice were individually placed in a Plexiglas observation cage (30 × 14 × 12 cm) for one hour, to acclimatize to the testing environment. The total time the animal spent licking or biting its paw during the early and late phase of formalin-induced nociception was recorded.
# Experimental data were expressed as mean ± s.e.m. In the tail flick test, significant differences among the groups were evaluated with two-way ANOVA followed by Sidak’s multiple comparisons test. Formalin test data were analyzed by using one-way ANOVA, followed by Holm–Sidak’s multiple comparisons test. […] Statistical significance was set at p < 0.05. The data and statistical analysis comply with the recommendations on experimental design and analysis in pharmacology.
# Early phase represents the formalin-induced nociceptive behavior recorded from 0 to 10 min after formalin injection; late phase is for the formalin-induced nociceptive behavior recorded from 15 to 40 min after formalin injection. V is for vehicle-treated animals. Statistical analysis: one-way ANOVA followed by Holm–Sidak’s multiple comparisons test. ** is for p < 0.01 and *** is for p < 0.001 vs. V. n = 7.
# CD-1 male mice [2] = assay: tail flick test; assay type: in vivo; conditions: i.c.v., 10 μg/10 μL, 15 to 120 min
# Experimental: as §1
# DMSO was purchased from Merck (Rome, Italy). Peptides solutions were freshly prepared using saline containing 0.9% NaCl and DMSO in the ratio DMSO/saline 1:5 v/v every experimental day. […]
# The tail flick latency was obtained using a commercial unit (Ugo Basile, Gemonio, Italy), consisting of an infrared radiant light source (100 W, 15 V bulb) focused onto a photocell utilizing an aluminum parabolic mirror. […] Radiant heat was focused 3–4 cm from the tip of the tail, and the latency (s) of the tail withdrawal to the thermal stimulus was recorded. […] The baseline latency was calculated as mean of three readings recorded before testing at intervals of 15 min and the time course of latency determined at 15, 30, 45, 60, 90, and 120 min after treatment. […]
# Experimental data were expressed as mean ± s.e.m. […]
# δ-opioid receptor = target: T1, δ-opioid receptor (Rattus norvegicus, UniProt P33533); assay: biochemical; assay type: binding; conditions: DOR; rat brain membrane; from IC50 by Cheng–Prusoff; read-out: Ki + S.E.M., displacement of [3H]Ile5,6Delt II
# T1 construct: aliquots of frozen rat and guinea pig brain membrane homogenates were thawed and suspended in 50 mM Tris-HCl buffer; from tissue; host or cells: Wistar rat brain membrane homogenate
# T1 sequence (P33533 whole entry): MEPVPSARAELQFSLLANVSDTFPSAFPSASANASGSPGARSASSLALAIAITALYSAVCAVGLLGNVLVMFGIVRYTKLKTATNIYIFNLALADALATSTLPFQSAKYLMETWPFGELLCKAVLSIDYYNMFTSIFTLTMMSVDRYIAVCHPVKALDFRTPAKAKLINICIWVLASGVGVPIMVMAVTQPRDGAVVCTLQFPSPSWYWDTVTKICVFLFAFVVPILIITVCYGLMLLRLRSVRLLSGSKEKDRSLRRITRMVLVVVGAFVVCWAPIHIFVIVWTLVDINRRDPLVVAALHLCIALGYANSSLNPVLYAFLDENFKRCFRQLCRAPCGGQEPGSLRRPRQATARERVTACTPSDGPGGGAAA
# G-protein [3] = assay: functional [35S]GTPγS binding, guinea pig brain membrane homogenates; assay type: biochemical; conditions: ligand alone
# Experimental: (§2) Rats and guinea pigs were decapitated, and their brains were quickly removed. The brains were used for membrane preparation following the procedure reported by Benyhe for binding and [^35S]GTPγS binding experiments, in agreement with the protocol of Zádor et al..
# (§3) Homogenization of brains was performed in 30 volumes (v/w) of ice-cold 50 mM Tris-HCl pH 7.4 buffer with a Teflon-glass Braun homogenizer at 1500 rpm. The centrifuge was settled at 18,000 rpm for 20 min at 4 °C, the resulting supernatant discarded, and the pellet taken up in the original volume of Tris-HCl buffer. Incubation of homogenate at 37 °C for 30 min was performed in a shaking water-bath. Five volumes of 50 mM Tris-HCl pH 7.4 buffer were used to suspend the final pellet at −80 °C. For the [^35S]GTPγS binding experiments, the brains were homogenized with a Dounce in 5 volumes (v/w) of ice-cold TEM (Tris-HCl, EGTA, MgCl2) at −80 °C. The protein content of the membrane preparation was determined by the method of Bradford, BSA being used as a standard.
# (§4) The functional [^35S]GTPγS binding experiments were performed as previously described. Briefly the membrane homogenates were incubated at 30 °C for 60 min in Tris-EGTA buffer (pH 7.4) composed of 50 mM Tris-HCl, 1 mM EGTA, 3 mM MgCl2, 100 mM NaCl, containing 20 MBq/0.05 cm^3 [^35S]GTPγS (0.05 nM) and increasing concentrations (10^−10 to 10^−5 M) of ligands. The experiments were performed in the presence of excess GDP (30 μM) in a final volume of 1 mL. Total binding was measured in the absence of test compounds, non-specific binding was determined in the presence of 10 μM unlabeled GTPγS. The reaction was terminated by rapid filtration under vacuum and washed three times with 5 mL ice-cold 50 mM Tris-HCl (pH 7.4) buffer through Whatman GF/B glass fibers. The radioactivity of the filters was detected in an UltimaGold^TM MV aqueous scintillation cocktail with a Packard Tricarb 2300TR liquid scintillation counter.
# (§5) Experimental data are presented as means ± S.E.M. Sigmoid dose-response curves were fitted with GraphPad Prism 5.0 (GraphPad Prism Software Inc., San Diego, CA, USA). An unpaired t-test with two-tailed p value was performed to determine the significance level. In the competition binding assays, the ‘One site competition’ fitting was used to establish the equilibrium binding affinity (Ki value).
# Figure S3. The effect of novel oligopeptides on G-protein activity in [35S]GTPγS binding assays in the absence or presence of the selective MOR antagonist cyprodime (Cyp) and the selective DOR antagonist naltrindole (NTI) in rat brain membrane homogenates (Figure A) and the selective KOR antagonist norbinaltorphine (nor-BNI) in guinea pig brain membrane homogenates (Figure B). […]
# κ-opioid receptor = target: T2, κ-opioid receptor (Cavia porcellus, UniProt P41144); assay: biochemical; assay type: binding; conditions: KOR; guinea pig brain membrane; from IC50 by Cheng–Prusoff; read-out: Ki + S.E.M., displacement of [3H]HS665
# T2 construct: aliquots of frozen rat and guinea pig brain membrane homogenates were thawed and suspended in 50 mM Tris-HCl buffer; from tissue; host or cells: guinea pig brain membrane homogenate
# T2 sequence (P41144 whole entry): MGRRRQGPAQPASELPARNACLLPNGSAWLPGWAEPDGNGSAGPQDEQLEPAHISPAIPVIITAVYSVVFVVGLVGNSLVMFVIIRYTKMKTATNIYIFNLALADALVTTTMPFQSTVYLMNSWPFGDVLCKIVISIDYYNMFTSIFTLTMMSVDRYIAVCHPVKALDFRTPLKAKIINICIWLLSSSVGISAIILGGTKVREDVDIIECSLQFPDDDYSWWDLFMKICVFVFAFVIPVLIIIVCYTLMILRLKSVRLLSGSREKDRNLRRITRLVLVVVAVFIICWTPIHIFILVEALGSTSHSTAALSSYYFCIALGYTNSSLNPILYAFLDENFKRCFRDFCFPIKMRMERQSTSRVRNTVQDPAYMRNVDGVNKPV
# NMDA receptor [4] = assay: [3H]MK-801 competition binding, rat brain membrane; conditions: read-out: Ki + S.E.M., displacement of [3H]MK-801
# G-protein [5] = assay: functional [35S]GTPγS binding, rat brain membrane homogenates; assay type: biochemical; conditions: for Potency Log EC50 ± S.E.M. / Maximal Stimulation (Efficacy) Emax ± S.E.M.: dose-response curves; for Maximal Stimulation (Efficacy) Emax ± S.E.M.: basal = 100%; for Emax + S.E.M., Ligand: ligand alone, bar graphs Figure S3
# Experimental: as §2, §3, §4, §5
# [35S]GTPγS binding assay in rat brain membrane homogenates. Figure S2 represents the specific binding of [35S]GTPγS in percentage in presence of increasing concentrations (10-10 - 10^-5 M) of the indicated ligands. “Total” on the x-axis indicates the basal activity of the monitored G-protein, which is measured in the absence of the ligands and represents the total specific binding of [35S]GTPγS. The level of basal activity was defined as 100% and it is presented with a dotted line. Points represent means ± S.E.M. for at least three experiments […]
# Figure S3. The effect of novel oligopeptides on G-protein activity in [35S]GTPγS binding assays in the absence or presence of the selective MOR antagonist cyprodime (Cyp) and the selective DOR antagonist naltrindole (NTI) in rat brain membrane homogenates (Figure A) and the selective KOR antagonist norbinaltorphine (nor-BNI) in guinea pig brain membrane homogenates (Figure B). The level of basal activity was defined as 100% and it is presented with a dotted line. Points represent means ± S.E.M. for at least three experiments performed
# [6] = parameters: method as in PMID 21598333; conditions: cited from earlier work
# NMDA receptor [7] = system: NMDA receptor; parameters: method as in earlier work; conditions: cited from earlier work
# μ, δ, κ-receptors = system: μ, δ, κ-receptors; parameters: method as in PMID 25478797; conditions: cited from earlier work
# [8] = NMDA system, rat brain membrane, from IC50 by Cheng–Prusoff
Molecule,"Emax + S.E.M., Ligand (G-protein [3]) [%]",Ki (κ-opioid receptor) [µM],Ki (NMDA receptor [4]) [µM],Potency Log EC50 ± S.E.M. (G-protein [5]),Maximal Stimulation (Efficacy) Emax ± S.E.M. (G-protein [5]) [%],"Emax + S.E.M., Ligand (G-protein [5]) [%]",other results
"C[C@@H](NC(=O)[C@@H](N)Cc1ccc(O)cc1)C(=O)NCC(=O)N(C)[C@@H](Cc1ccccc1)C(=O)NCCO [DAMGO, Tyr-D-Ala-Gly-(NMe)Phe-Gly-ol, reference compound]",–,–,–,–,–,–,"formalin-induced nociceptive behavior, early phase (CD-1 male mice [1]; 0 to 10 min): reduction of the nociceptive behavior both early and late; formalin-induced nociceptive behavior, late phase (CD-1 male mice [1]; 15 to 40 min): reduction of the nociceptive behavior both early and late; effect on time of response to thermal nociceptive stimuli (tail flick) (CD-1 male mice [2]): greatly increase the time of response to thermal nociceptive stimuli"
NC(=O)[C@H](CC(=O)c1ccccc1N)NC(=O)[C@H](Cc1ccccc1)NC(=O)[C@@H]1CCCN1C(=O)[C@@H](N)Cc1ccc(O)cc1 [Peptide K3] (H-YPF[Kyn]-NH2),95.2 ± 2.2,> 10,> 10,−6.993 ± 0.422,114.0 ± 2.1,118.9 ± 3.0,Ki (δ-opioid receptor): 0.159 ± 0.0016 µM
FP-Kyn-L-NH2,–,–,–,–,–,–,concentration with opioid activity [6]: 10^−7 M
"O=C(O)c1cc(=O)c2ccccc2[nH]1 [KYNA, kynurenic acid]",–,–,–,–,–,–,"affinity for NMDA receptor (NMDA receptor [7]): micromolar affinity; Ki (NMDA receptor [4]; [8]): > 10 µM; direct binding to μ, δ, κ-receptors in vitro (μ, δ, κ-receptors): did not directly bind"
"Nc1ccccc1C(=O)C[C@H](N)C(=O)O [L-kyn, L-kynurenine, reference compound]",–,–,–,–,–,–,Ki (NMDA receptor [4]; [8]): > 10 µM
CN(C)CCNC(=O)c1cc(=O)c2ccccc2[nH]1.Cl [KYNA1],–,–,–,–,–,–,"direct binding to μ, δ, κ-receptors in vitro (μ, δ, κ-receptors): did not directly bind"
COC(=O)[C@H](CC(=O)c1ccccc1N)NC(=O)[C@H](Cc1ccccc1)NC(=O)CNC(=O)[C@@H](C)NC(=O)[C@@H](N)Cc1ccc(O)cc1 [Peptide K4] (H-Y[dA]GF[Kyn]-OMe),125.2 ± 2.0,> 10,> 10,−6.073 ± 0.172,155.5 ± 4.8,160.6 ± 5.7,–
C[C@@H](NC(=O)[C@@H](N)Cc1ccc(O)cc1)C(=O)NCC(=O)N[C@@H](Cc1ccccc1)C(=O)N[C@@H](CC(=O)c1ccccc1N)C(=O)O [Peptide K5] (H-Y[dA]GF[Kyn]-OH),–,> 10,–,–,–,–,–
NC(=O)[C@H](Cc1ccccc1)NC(=O)[C@H](CC(=O)c1ccccc1N)NC(=O)[C@@H]1CCCN1C(=O)[C@@H](N)Cc1ccc(O)cc1 [Peptide K2],92.8 ± 2.0,1.043 ± 0.0003,> 10,−7.535 ± 0.354,121.6 ± 2.5,129.9 ± 8.2,Ki (δ-opioid receptor): > 10 µM
